{"source": "patent US8247562B2", "about": "“Benzamide derivatives useful as histone deacetylase inhibitors” (Astrazeneca AB, priority 2002, dated 2012)", "origin": "cited, not measured here", "key": {"tumours in mice": {"test_system": "tumours in mice", "conditions": "Finnin et al., Nature, 401, 188-193 (1999)"}, "rat fibroblasts": {"test_system": "rat fibroblasts", "conditions": "Yoshida et al, Exper. Cell Res., 177, 122-131 (1988)"}}, "data": [{"smiles": "CC(/C=C/C(=O)NO)=C\\[C@@H](C)C(=O)c1ccc(N(C)C)cc1", "note": "[Trichostatin A]", "values": [{"measurement": "formation of tumours", "setting": "tumours in mice", "result": "prevent the formation of tumours in mice"}, {"measurement": "cell cycle arrest", "setting": "rat fibroblasts", "result": "arrest of rat fibroblasts at the G1 and G2 phases of the cell cycle"}]}]}
